We go through 17 molecules from patent US11866430B2, “Naphthyridinone compounds useful as T cell activators” (priority 2018, dated 2024).

Read-outs that look alike come from different tables or passages of the source. Bounds are passed on as bounds.

One assay deals with human DGKζ (Homo sapiens (Human), UniProt Q13574). The assay is described as follows: DGKζ assay (detergent/lipid micelle substrate). It counts as biochemical. The note with it: detergent/lipid micelle substrate; read-out: DGKζ IC50. An outline of the steps: (§1)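 Enzymes were baculovirus/Sf9 full-length human DGKα or DGKζ with His tag. The substrate was PS/DAG in octyl glucoside micelles, in MOPS pH 7.5 buffer with NaCl, MgCl2, CaCl2 and DTT.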
human DGKζ, sequence (Q13574 other isoform, or with tags, fused parts or gaps): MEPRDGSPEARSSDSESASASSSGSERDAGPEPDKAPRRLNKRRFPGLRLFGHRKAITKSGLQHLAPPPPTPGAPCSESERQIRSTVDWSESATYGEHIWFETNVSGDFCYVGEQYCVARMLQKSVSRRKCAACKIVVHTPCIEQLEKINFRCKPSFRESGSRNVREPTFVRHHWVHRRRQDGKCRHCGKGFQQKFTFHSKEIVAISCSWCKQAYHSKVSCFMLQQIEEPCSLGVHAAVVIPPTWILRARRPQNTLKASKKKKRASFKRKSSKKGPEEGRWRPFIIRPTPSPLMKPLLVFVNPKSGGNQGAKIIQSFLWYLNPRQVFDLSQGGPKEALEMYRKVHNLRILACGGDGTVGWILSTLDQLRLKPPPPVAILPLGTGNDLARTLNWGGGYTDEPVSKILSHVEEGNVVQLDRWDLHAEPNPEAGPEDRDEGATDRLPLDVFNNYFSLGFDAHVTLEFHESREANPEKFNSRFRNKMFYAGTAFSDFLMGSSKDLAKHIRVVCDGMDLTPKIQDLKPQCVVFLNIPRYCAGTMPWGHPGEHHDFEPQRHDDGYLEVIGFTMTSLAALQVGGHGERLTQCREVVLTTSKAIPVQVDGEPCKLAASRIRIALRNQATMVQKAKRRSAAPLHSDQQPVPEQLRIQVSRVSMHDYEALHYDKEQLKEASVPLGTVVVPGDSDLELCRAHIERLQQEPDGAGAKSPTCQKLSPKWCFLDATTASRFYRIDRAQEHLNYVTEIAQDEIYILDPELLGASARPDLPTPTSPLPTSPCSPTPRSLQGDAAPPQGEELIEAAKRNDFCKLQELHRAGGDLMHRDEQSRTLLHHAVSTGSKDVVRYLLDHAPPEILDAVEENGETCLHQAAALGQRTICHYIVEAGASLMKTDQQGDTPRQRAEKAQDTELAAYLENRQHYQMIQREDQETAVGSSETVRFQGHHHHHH

In the next assay the target is human DGKα (Homo sapiens (Human), UniProt P23743). The assay is described as follows: biochemical. In a few lines:
as §1

Assay [1] concerns Jurkat AP1-luciferase Reporter. The assay is described as follows: DGK AP1-Reporter Assay. It counts as cell-based. Here is the method: The Jurkat AP1-luciferase Reporter was generated using the Cignal Lenti AP1 Reporter (luc) Kit from SABiosciences (CLS-011L).
The sample size was 30 nl per well; and one destination plate per source plate. The cell suspensions were prepared by transferring 40 mL cells (2×20 mL) to clean 50 mL conical tubes. The cells were concentrated by centrifugation (1200 rpm; 5 mins; ambient temperature). […] The cell plates were incubated for 20 minutes at 37° C., and 5% CO2.
During the incubation, anti-CD3 antibody (αCD3) solutions were prepared by mixing 3 μl αCD3 (1.3 mg/mL) with 10 mL medium [final conc=0.4 μg/mL]. Next, 1.5 μl αCD3 (1.3 mg/mL) was mixed with 0.5 mL medium [final conc=4 μg/mL]. After 20 minutes, 10 μl medium was added to all wells in column 1, wells A to M, and 10 μl αCD3 (4 μg/mL) per well was added in column 1, rows N to P for reference. Then using a multi-channel pipette, 10 μl αCD3 (0.4 μg/mL) per well was added. The αCD3 stimulated +/− compound-treated cells were incubated at 37° C., 5% CO2 for 6 hours.
During this incubation period. Steady-Glo (Promega E2520) reagent was slowly thawed on to ambient temperature. Next, 20 μl Steady-Glo reagent per well was added using a multi-drop Combi-dispenser. Bubbles were removed by centrifugation (2000 rpm, ambient temperature, 10 sees). The cells were incubated at room temperature for 5 minutes. Samples were characterized by measuring the Relative Light Units (RLU) with an using Envision Plate Reader Instrument on a luminescence protocol.
(In general: Reporter assays use an easily measured gene product as a stand-in for the process of interest.)

[2] abbreviates: detergent/lipid micelle substrate, read-out: DGKα IC50.
[3] abbreviates: Homo sapiens, Jurkat, read-out: API-Luciferase Reporter IC50, Table 3.

human DGKα, sequence (P23743 other isoform, or with tags, fused parts or gaps): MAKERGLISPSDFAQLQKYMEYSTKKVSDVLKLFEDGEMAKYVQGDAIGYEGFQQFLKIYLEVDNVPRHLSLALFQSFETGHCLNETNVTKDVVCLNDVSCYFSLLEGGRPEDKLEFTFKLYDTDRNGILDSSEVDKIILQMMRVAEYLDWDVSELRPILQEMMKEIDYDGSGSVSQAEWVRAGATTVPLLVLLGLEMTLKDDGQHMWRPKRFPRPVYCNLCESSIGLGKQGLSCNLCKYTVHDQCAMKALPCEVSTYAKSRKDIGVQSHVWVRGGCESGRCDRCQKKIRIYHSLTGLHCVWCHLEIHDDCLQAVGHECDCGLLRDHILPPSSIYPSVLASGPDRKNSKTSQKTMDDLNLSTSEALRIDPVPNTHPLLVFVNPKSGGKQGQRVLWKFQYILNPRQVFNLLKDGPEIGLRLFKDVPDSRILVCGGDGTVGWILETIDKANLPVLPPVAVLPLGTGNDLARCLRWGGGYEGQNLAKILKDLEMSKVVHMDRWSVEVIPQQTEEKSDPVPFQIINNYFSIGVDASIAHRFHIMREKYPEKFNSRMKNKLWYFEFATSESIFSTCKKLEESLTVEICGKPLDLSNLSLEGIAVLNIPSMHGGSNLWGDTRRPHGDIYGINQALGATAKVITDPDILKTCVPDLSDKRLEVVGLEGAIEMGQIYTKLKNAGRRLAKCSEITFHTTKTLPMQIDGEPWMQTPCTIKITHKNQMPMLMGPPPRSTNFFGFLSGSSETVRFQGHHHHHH

Turning to `COc1cc(F)ccc1C(c1ccc(F)cc1)N1CCN(c2c(C#N)c(=O)n(C)c3ccc(Br)nc23)CC1` (racemic) [Example 15, 6-bromo-4-{4-[(4-fluoro-2-methoxyphenyl)(4-fluorophenyl)methyl]piperazin-1-yl}-1-methyl-2-oxo-1,2-dihydro-1,5-naphthyridine-3-carbonitrile], the IC50 (usually the concentration needed to halve the response being measured) worked out at 58000 nM at human DGKζ, 550 nM on human DGKα (setting [2]) and 1820 nM in assay [1] (setting [3]).
The matching figures for `CC(c1ccc(F)cc1)N1CCN(c2c(C#N)c(=O)n(C)c3ccc(Br)nc23)CC1` (racemic) [Example 22, 6-bromo-4-{4-[1-(4-fluorophenyl)ethyl]piperazin-1-yl}-1-methyl-2-oxo-1,2-dihydro-1,5-naphthyridine-3-carbonitrile]: greater than 81000 nM, 70 nM and 1530 nM.
The matching figures for `CCC(c1ccc(F)cc1)N1CCN(c2c(C#N)c(=O)n(C)c3ccc(Br)nc23)CC1` (racemic) [Example 25, 6-bromo-4-{4-[1-(4-fluorophenyl)propyl]piperazin-1-yl}-1-methyl-2-oxo-1,2-dihydro-1,5-naphthyridine-3-carbonitrile]: greater than 81000 nM, 41 nM and 1150 nM.
For the molecule `Cn1c(=O)c(C#N)c(N2CCN(CC(O)c3ccc(F)cc3)CC2)c2nc(Br)ccc21` (racemic) [Example 28, 6-bromo-4-{4-[2-(4-fluorophenyl)-2-hydroxyethyl]piperazin-1-yl}-1-methyl-2-oxo-1,2-dihydro-1,5-naphthyridine-3-carbonitrile], the IC50 is greater than 81000 nM at human DGKζ, 1300 nM at human DGKα (setting [2]) and 4450 nM in assay [1] (setting [3]).
The like results for `COCCn1c(=O)c(C#N)c(N2CCN(C(c3ccc(F)cc3)c3ccc(F)cc3OC)CC2)c2nc(Br)ccc21` (racemic) [Example 114, 6-bromo-4-(4-((4-fluoro-2-methoxyphenyl)(4-fluorophenyl)methyl)piperazin-1-yl)-1-(2-methoxyethyl)-2-oxo-1,2-dihydro-1,5-naphthyridine-3-carbonitrile] were, in that order, 100000 nM, 120000 nM and 4120 nM.
Consider `C#CCn1c(=O)c([N+](=O)[O-])c(N2CCN(C(c3ccc(F)cc3)c3ccccc3O)CC2)c2nc(C#N)ccc21` (racemic) [Example 132, 8-(4-((4-fluorophenyl)(2-hydroxyphenyl)methyl)piperazin-1-yl)-7-nitro-6-oxo-5-(prop-2-yn-1-yl)-5,6-dihydro-1,5-naphthyridine-2-carbonitrile], for which the IC50 turned out to be 150 nM at human DGKζ; 3300 nM against human DGKα (DGKα IC50, detergent/lipid micelle substrate); 80 nM in assay [1] (setting [3]).
As to `C#CCn1c(=O)c([N+](=O)[O-])c(N2CCN(C(C)c3ccc(F)cc3)CC2)c2nc(C#N)ccc21` (racemic) [Example 135, 8-(4-(1-(4-fluorophenyl)ethyl)piperazin-1-yl)-7-nitro-6-oxo-5-(prop-2-yn-1-yl)-5,6-dihydro-1,5-naphthyridine-2-carbonitrile], the IC50 on human DGKζ is 1300 nM; at human DGKα (setting [2]), 180 nM; in assay [1] (setting [3]), 340 nM.
The like results for `C#CCn1c(=O)c([N+](=O)[O-])c(N2CCN(C(CC)c3ccc(F)cc3)CC2)c2nc(C#N)ccc21` (racemic) [Example 139, 8-{4-[1-(4-fluorophenyl)propyl]piperazin-1-yl}-7-nitro-6-oxo-5-(prop-2-yn-1-yl)-5,6-dihydro-1,5-naphthyridine-2-carbonitrile] were, in that order, 910 nM, 410 nM and 130 nM.
As for `COCCn1c(=O)c([N+](=O)[O-])c(N2CCN(C(C)c3ccc(F)cc3)CC2)c2nc(C#N)ccc21` (racemic) [Example 148, 8-(4-(1-(4-fluorophenyl)ethyl)piperazin-1-yl)-5-(2-methoxyethyl)-7-nitro-6-oxo-5,6-dihydro-1,5-naphthyridine-2-carbonitrile], the IC50 on human DGKζ was found to be 28000 nM; on human DGKα (setting [2]), 15000 nM; in assay [1] (setting [3]) it was 870 nM.
`C#CCn1c(=O)c([N+](=O)[O-])c(N2CCN(C(c3ccc(F)cc3)c3ccc(F)cc3O)CC2)c2nc(C#N)ccc21` (single isomer, unassigned) [Example 120, 8-(4-((4-fluoro-2-hydroxyphenyl)(4-fluorophenyl)methyl)piperazin-1-yl)-7-nitro-6-oxo-5-(prop-2-yn-1-yl)-5,6-dihydro-1,5-naphthyridine-2-carbonitrile]: the IC50 on human DGKζ was greater than 81000 nM; at human DGKα (setting [2]) it was 18000 nM; in assay [1] (read-out: API-Luciferase Reporter IC50, Table 3), 1300 nM.
Consider `C#CCn1c(=O)c([N+](=O)[O-])c(N2CCN(C(c3ccc(F)cc3)c3ccccc3OC)CC2)c2nc(C#N)ccc21` (single isomer, unassigned) [Example 131, 8-(4-((4-fluorophenyl)(2-methoxyphenyl)methyl)piperazin-1-yl)-7-nitro-6-oxo-5-(prop-2-yn-1-yl)-5,6-dihydro-1,5-naphthyridine-2-carbonitrile], for which the figures for the IC50 (at human DGKζ; on human DGKα (setting [2]); in assay [1] (setting [3])) were 370 nM, 11000 nM and 500 nM, respectively.
The like results for `COc1ccccc1C(c1ccc(F)cc1)N1CCN(c2c(C#N)c(=O)n(C)c3ccc(Br)nc23)CC1` (stereo not drawn) [Example 12, 6-bromo-4-{4-[(4-fluorophenyl)(2-methoxyphenyl)methyl]piperazin-1-yl}-1-methyl-2-oxo-1,2-dihydro-1,5-naphthyridine-3-carbonitrile] were, in that order, greater than 81000 nM, 1000 nM and 580 nM.
The matching figures for `Cn1c(=O)c([N+](=O)[O-])c(N2CCN(C(CO)c3ccc(F)cc3)CC2)c2nc(C#N)ccc21` (stereo not drawn) [Example 37, 8-{4-[1-(4-fluorophenyl)-2-hydroxyethyl]piperazin-1-yl}-5-methyl-7-nitro-6-oxo-5,6-dihydro-1,5-naphthyridine-2-carbonitrile]: 38000 nM, 1800 nM and 2830 nM.
The like results for `CC(c1ccc(F)cc1)N1CCN(c2c([N+](=O)[O-])c(=O)n(C)c3ccc(C#N)nc23)CC1` (stereo not drawn) [Example 43, 8-(4-(1-(4-fluorophenyl)ethyl)piperazin-1-yl)-5-methyl-7-nitro-6-oxo-5,6-dihydro-1,5-naphthyridine-2-carbonitrile] were, in that order, 6300 nM, 37 nM and 400 nM.
As for `Cn1c(=O)c(C#N)c(N2CCN(Cc3ccccc3N)CC2)c2nc(Br)ccc21` [Example 211, 4-(4-(2-aminobenzyl)piperazin-1-yl)-6-bromo-1-methyl-2-oxo-1,2-dihydro-1,5-naphthyridine-3-carbonitrile], the half-inhibitory concentration (IC50) on human DGKζ was greater than 240000 nM; on human DGKα (setting [2]) it was 250 nM; in assay [1] (setting [3]), 520 nM.
The matching figures for `Cn1c(=O)c(C#N)c(N2CCN(Cc3ccccc3NS(C)(=O)=O)CC2)c2nc(Br)ccc21` [Example 212, N-(2-((4-(6-bromo-3-cyano-1-methyl-2-oxo-1,2-dihydro-1,5-naphthyridin-4-yl)piperazin-1-yl)methyl)phenyl)methanesulfonamide]: greater than 240000 nM, 2200 nM and 1140 nM.
The matching figures for `Cn1c(=O)c(C#N)c(N2CCN(Cc3ccc(C#N)cc3F)CC2)c2nc(Cl)ccc21` [Example 379, 6-chloro-4-{4-[(4-cyano-2-fluorophenyl)methyl]piperazin-1-yl}-1-methyl-2-oxo-1,2-dihydro-1,5-naphthyridine-3-carbonitrile]: greater than 240000 nM, 380 nM and 7840 nM.
